Values of other authors, collected in patent publication US20110135768A1, “DIHYDRO-ISOALPHA ACID AND ACACIA NILOTICA EXTRACT BASED COMPOSITIONS AND METHODS FOR WEIGHT MANAGEMENT” (Metaproteomics, LLC, priority 2009, published 2011).
Ends that are not written are not given here.

Settings: rats, intra-cerebroventricular administration

GLP-1: glucagon-like peptide-1, a 30 amino acid peptide derived from proglucagon gene (HAEGTFTSDVSSYLEGQAAKEFIAWLVKGR; ends and bridges not checked; UniProt P01275 98-127, looked up)
body weight: reduce | eating: inhibit
